Test results reported in patent US20090291929A1, “STEROIDS HAVING A MIXED […] PRO[…]” (N.V. ORGANON, priority 2005, published 2009).
Where two headings read alike, the source gives them in different places.

What was measured:
[1] = target: T1, human androgen receptor (hAR) (Homo sapiens, UniProt P10275); experiment: Transactivative androgen agonistic activity in CHO cells transfected with hAR, MMTV and luciferase; assay type: cell-based; settings: MMTV-luciferase, incubation 16 h, 37° C.
T1 construct: expressed in transfected cells; host or cells: Chinese hamster ovary cells (CHO)
T1 sequence (P10275 1-920): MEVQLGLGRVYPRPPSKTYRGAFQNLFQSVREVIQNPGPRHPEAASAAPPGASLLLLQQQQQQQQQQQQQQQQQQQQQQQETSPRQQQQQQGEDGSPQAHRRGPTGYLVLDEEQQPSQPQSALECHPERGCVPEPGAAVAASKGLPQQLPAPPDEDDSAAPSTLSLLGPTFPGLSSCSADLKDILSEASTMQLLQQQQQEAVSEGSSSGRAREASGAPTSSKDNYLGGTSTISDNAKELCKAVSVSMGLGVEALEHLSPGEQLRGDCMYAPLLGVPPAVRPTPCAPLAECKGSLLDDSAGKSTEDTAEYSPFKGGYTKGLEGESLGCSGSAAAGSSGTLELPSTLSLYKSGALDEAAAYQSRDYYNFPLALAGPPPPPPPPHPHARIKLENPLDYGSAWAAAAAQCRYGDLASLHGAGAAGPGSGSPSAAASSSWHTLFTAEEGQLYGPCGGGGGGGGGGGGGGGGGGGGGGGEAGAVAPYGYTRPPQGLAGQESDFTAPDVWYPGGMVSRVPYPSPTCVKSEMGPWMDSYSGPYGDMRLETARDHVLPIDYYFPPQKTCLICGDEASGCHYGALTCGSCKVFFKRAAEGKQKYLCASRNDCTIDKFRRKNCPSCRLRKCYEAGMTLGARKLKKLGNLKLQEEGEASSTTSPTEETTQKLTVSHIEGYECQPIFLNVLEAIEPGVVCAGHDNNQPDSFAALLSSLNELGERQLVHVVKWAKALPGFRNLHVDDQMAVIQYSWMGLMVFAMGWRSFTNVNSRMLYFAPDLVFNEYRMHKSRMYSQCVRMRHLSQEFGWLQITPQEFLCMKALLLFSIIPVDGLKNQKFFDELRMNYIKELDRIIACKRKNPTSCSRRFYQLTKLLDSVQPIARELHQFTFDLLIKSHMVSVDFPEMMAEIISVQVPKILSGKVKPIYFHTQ
Experimental: (§1) The transactivative androgen agonistic activity of the compounds of the invention was measured in Chinese hamster ovary cells (CHO) transfected with the human androgen receptor (hAR), in combination with a mouse mammary tumor virus (MMTV), and luciferase receptor gene (incubation time 16 h, temperature 37° C.) and compared with the activity of 5α-dihydrotestosterone [according to the procedure described by Schoonen, W. G. E. J. et al., Analyt. Biochem. 261, 222-224 (1998)].

[2] = target: T2, human progesterone receptor B (hPRB) (Homo sapiens, UniProt P06401); experiment: Transactivative progestagenic agonistic activity in CHO cells transfected with hPRB, MMTV and luciferase; assay type: cell-based; settings: MMTV-luciferase, incubation 16 h, 37° C.
T2 construct: expressed in transfected cells; host or cells: Chinese hamster ovary cells (CHO)
T2 sequence (P06401 1-933): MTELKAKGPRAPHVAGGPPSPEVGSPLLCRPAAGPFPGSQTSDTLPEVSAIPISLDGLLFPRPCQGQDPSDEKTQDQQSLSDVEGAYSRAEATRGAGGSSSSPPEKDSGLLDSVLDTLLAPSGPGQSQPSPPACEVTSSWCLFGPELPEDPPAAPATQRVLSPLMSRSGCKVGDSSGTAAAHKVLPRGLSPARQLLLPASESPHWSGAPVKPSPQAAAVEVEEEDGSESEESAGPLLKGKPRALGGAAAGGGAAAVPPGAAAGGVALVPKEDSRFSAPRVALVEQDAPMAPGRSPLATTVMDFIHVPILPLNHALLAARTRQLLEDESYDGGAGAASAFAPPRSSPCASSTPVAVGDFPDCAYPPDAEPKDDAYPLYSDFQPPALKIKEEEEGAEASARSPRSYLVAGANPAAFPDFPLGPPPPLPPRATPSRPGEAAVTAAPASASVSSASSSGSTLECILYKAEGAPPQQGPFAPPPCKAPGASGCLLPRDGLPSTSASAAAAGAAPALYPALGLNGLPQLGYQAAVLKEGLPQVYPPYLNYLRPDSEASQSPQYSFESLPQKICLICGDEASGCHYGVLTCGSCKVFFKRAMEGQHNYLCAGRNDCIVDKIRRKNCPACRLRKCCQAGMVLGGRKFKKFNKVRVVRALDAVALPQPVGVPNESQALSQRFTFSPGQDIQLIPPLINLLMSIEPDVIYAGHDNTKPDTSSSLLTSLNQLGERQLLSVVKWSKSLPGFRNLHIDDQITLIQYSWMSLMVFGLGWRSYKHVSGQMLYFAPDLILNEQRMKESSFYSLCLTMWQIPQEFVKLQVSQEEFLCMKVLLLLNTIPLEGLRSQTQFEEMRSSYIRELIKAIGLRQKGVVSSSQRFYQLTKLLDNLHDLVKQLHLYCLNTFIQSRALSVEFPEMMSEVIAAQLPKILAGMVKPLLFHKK
Experimental: as §1, with “transactivative progestagenic” for “transactivative androgen”, “human progesterone” for “human androgen”, “receptor B (hPRB),” for “receptor (hAR),”, “of (16α)-16-ethyl-21-hydroxy-19-norpregn-4-ene-3,20-dione” for “of 5α-dihydrotestosterone”

[3] = from literature; cited from earlier work
[4] = from literature (Seaman 1985); cited from earlier work
[5] = Liver safety: BSP retention assay in male castrated rabbits; assay type: in vivo, New Zealand White rabbits; settings: 10 mg/kg/day per oral for 7 days, BSP 15 mg/kg intravenous
Experimental: The primary aim of this test was the evaluation of liver function, by measuring the clearance of a single, intravenously injected, dose of bromosulfophthalein (BSP) after 7 days (once daily) per oral treatment of male castrated rabbits with a compound of the invention.
Briefly, this test is performed in mature male castrated New Zealand White rabbits. At least two weeks after castration animals are treated for seven days (once daily) with tablets, or arachis oil containing 5% (v/v) ethanol, resulting in a dose of 10 mg/kg/day of a test compound. Twenty-four hours after the last administration the rabbits were light sedated with 0.15 ml Hypnorm intramuscular, BSP was injected (15 mg/kg intravenous, dissolved in 5% (w/v) mannitol/H2O). Blood is collected at 5, 10, 15 and 20 minutes, BSP content in plasma is determined with a spectrophotometer. The t½ of BSP elimination from the blood is calculated from the obtained data.

Oral activity = assay type: in vivo; settings: found by applicant ("We have found")
Liver toxicity = settings: stated without citation
[6] = Prevention of trabecular bone mineral density (BMD) loss; assay type: in vivo; settings: found by applicant
Excerpt: Biological activity of compounds according to the invention can be observed in vivo in the rat serum LH suppression test and in the rat anti-steoporosis test measuring restoration of trabecular bone mineral density. Anabolic effect can be observed on musculus levator ani. In the monkey activity can be observed in the testosterone suppression test. In vivo liver safety can be evaluated in the rabbit upon repeated administration of a compound according to the invention.

[7] = vehicle Arachis oil + 5% ethanol

For CC1CC2=CC(=O)CCC2C2CCC3(C)C(=CCC(C)C3O)C12 [Compound of Example 3, (7α,17α,17aβ)-17a-Hydroxy-7,17-dimethyl-D-homoestra-4,14-dien-3-one], which “Androgen activity: Relative agonistic activity (%) versus 5α-dihydrotestosterone” value [1] is on record?
The value was 10.2%.

What about the “Progestagen activity: Relative agonistic activity (%) versus (16α)-16-ethyl-21-hydroxy-19-norpregn-4-ene-3,20-dione” value [2] of the same compound?
The value was 47.4%.

With C#CC1(O)CCC=C2C3CCC4=CC(=O)CCC4C3CCC21C [Compound of Example 9, (17aα)-17a-Hydroxy-D-homo-19-norpregna-4,14-dien-20-yn-3-one] as the compound, how does the “Androgen activity: Relative agonistic activity (%) versus 5α-dihydrotestosterone” value [1] read?
The value was 12.3%.

And the “Progestagen activity: Relative agonistic activity (%) versus (16α)-16-ethyl-21-hydroxy-19-norpregn-4-ene-3,20-dione” value [2]?
The value was 16.0%.

For CCC1(O)CCC=C2C3C(C)CC4=CC(=O)CCC4C3CCC21C [Compound of Example 6, (7α,17aα)-17a-Hydroxy-7-methyl-D-homo-19-norpregna-4,14-dien-3-one], which “Androgen activity: Relative agonistic activity (%) versus 5α-dihydrotestosterone” value [1] is on record?
Its value is 13.2%.

What about the “Progestagen activity: Relative agonistic activity (%) versus (16α)-16-ethyl-21-hydroxy-19-norpregn-4-ene-3,20-dione” value [2] of the same compound?
Its value is 91.2%.

Which results are given for C[C@@H]1CC2=CC(=O)CC[C@@H]2[C@H]2CC[C@@]3(C)[C@@H](CC[C@]3(C)O)[C@@H]21 [7α,17α-dimethylnandrolone]?
Oral activity [3]: orally active; Liver toxicity [4]: severe liver toxicity

Which “Androgen activity: Relative agonistic activity (%) versus 5α-dihydrotestosterone” value [1] does the source give for CC1(O)CCC=C2C3CCC4=CC(=O)CCC4C3CCC21C [Compound of Example 8, (17aβ)-17a-Hydroxy-17a-methyl-D-homoestra-4,14-dien-3-one] here?
Its value is 157.9%.

What about the “Progestagen activity: Relative agonistic activity (%) versus (16α)-16-ethyl-21-hydroxy-19-norpregn-4-ene-3,20-dione” value [2] of the same compound?
Its value is 228.4%.

For C[C@]12CCC(=O)C=C1CC[C@@H]1[C@@H]2CC[C@@]2(C)[C@H]1CC[C@]2(C)O [17α-Methyltestosterone, reference compound], which “T½ BSP” value [5, 7] is on record?
Its value is 5.6 min.

And the “T½ BSP” value ([5]; vehicle Tablet)?
The value was 6.0 min.

With CC1CC2=CC(=O)CCC2C2CCC3(C)C(O)CCCC3C12 [7α-Methyl-19-nor-D-homotestosterone] as the compound, how does the Oral activity (Oral activity) read?
The Oral activity was “not an orally active compound”.

Which Oral activity (Oral activity) does the source give for CCC12CCC3C4CCC(=O)C=C4CCC3C1CCCC2(C)O [(17aβ)-13-ethyl-17a-hydroxy-17a-methyl-D-homogon-4-en-3-one] here?
Its Oral activity is “not orally active”.

With CCC1CC2=CC(=O)CCC2C2CCC3(C)C(=CCCC3O)C12 [Compound of Example 2, (7α,17aβ)-7-Ethyl-17a-hydroxy-D-homoestra-4,14-dien-3-one] as the compound, how does the “Androgen activity: Relative agonistic activity (%) versus 5α-dihydrotestosterone” value [1] read?
The value was 30.5%.

What about the “Progestagen activity: Relative agonistic activity (%) versus (16α)-16-ethyl-21-hydroxy-19-norpregn-4-ene-3,20-dione” value [2] of the same compound?
Its value is 0.47%.

Which Liver toxicity (Liver toxicity) does the source give for C[C@@H]1CC2=CC(=O)CC[C@@H]2[C@H]2CC[C@@]3(C)C(=CC[C@]3(C)O)[C@@H]21 [Reference compound, (7α,17β)-17-Hydroxy-7,17-dimethylestra-4,14-dien-3-one] here?
Its Liver toxicity is “severe liver toxicity”.

Which “Prevention of trabecular bone mineral density (BMD) loss” value [6] does the source give for C[C@]1(O)CCC[C@H]2[C@@H]3CCC4=CC(=O)CC[C@@H]4[C@H]3CC[C@@]21C [17aα-Methyl-19-nor-D-homotestosterone] here?
The value was “unable to prevent trabecular bone mineral density (BMD) loss”.

And the Oral activity (Oral activity)?
The Oral activity was “low activity upon oral administration”.

For CC1CC2=CC(=O)CCC2C2CCC3(C)C(=CCCC3(C)O)C12 [Compound of Example 4, (7α,17aβ)-17a-Hydroxy-7,17a-dimethyl-D-homoestra-4,14-dien-3-one], which “T½ BSP” value [5, 7] is on record?
The value was 4.9 min.

And the “T½ BSP” value ([5]; vehicle Tablet)?
The value was 5.5 min.

What about the “Androgen activity: Relative agonistic activity (%) versus 5α-dihydrotestosterone” value [1] of the same compound?
Its value is 106.9%.

And the “Progestagen activity: Relative agonistic activity (%) versus (16α)-16-ethyl-21-hydroxy-19-norpregn-4-ene-3,20-dione” value [2]?
The value was 133.7%.

Which Oral activity (Oral activity) does the source give for CCC12CCC3C4CCC(=O)C=C4CCC3C1CCCC2O [(17aβ)-13-ethyl-17a-hydroxy-D-homogon-4-en-3-one] here?
The Oral activity was “not orally active”.

Which “Androgen activity: Relative agonistic activity (%) versus 5α-dihydrotestosterone” value [1] does the source give for CC1CC2=CC(O)CCC2C2CCC3(C)C(=CCCC3(C)O)C12 [Compound of Example 5, (3β,7α,17aβ)-7,17a-Dimethyl-D-homoestra-4,14-dien-3,17a-diol] here?
Its value is 36.2%.

And the “Progestagen activity: Relative agonistic activity (%) versus (16α)-16-ethyl-21-hydroxy-19-norpregn-4-ene-3,20-dione” value [2]?
The value was 6.4%.
